Legend:
S. pneumoniae D39V [1] = assay: Bliss interaction score (quartile over a dose matrix) (fitness difference); higher = more antagonism (negative = synergy)
Procedure, shortened: (§1)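 The Bliss score subtracts expected fitness, the product of the single-drug fitness values, from observed fitness. Fitness is plate-normalised OD595 at entry into stationary phase, relative to the robust no-drug mean and capped at 1, with single-drug fitness inferred from combinations. Summaries are quartiles over technical, biological and donor/recipient replicates.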

S. aureus DSM 20231 = assay: as above
Procedure, shortened: as §1

B. subtilis 168 [2] = assay: as above
Procedure, shortened: as §1

S. aureus Newman = assay: as above
Procedure, shortened: as §1

B. subtilis 168 [3] = assay: fitness (endpoint OD595 vs no drug) (fraction); higher = more growth
Procedure, shortened: (§2)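 Fitness was defined as the optical density at the transition into stationary phase relative to the robust mean of no-drug control wells. Values were capped at 1. Cultures were started at OD595 0.01 in 384-well plates (30 µl, or 55 µl for S. pneumoniae) in TSB, LB Lennox or CY at 37 °C. OD595 was recorded every 30 min over 14 h, with the first reading subtracted as background.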

S. pneumoniae D39V [4] = assay: as above
Procedure, shortened: as §2
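Wherever Bliss interaction score (quartile over a dose matrix) is given: first quartile when negative (synergy) and third quartile when positive (antagonism).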

CO/N=C(\C(=O)N[C@@H]1C(=O)N2C(C(=O)O)=C(COC(N)=O)CS[C@H]12)c1ccco1 [Cefuroxime] + COc1cc(Cc2cnc(N)nc2N)cc(OC)c1OC [Trimethoprim]
Conditions	Bliss interaction score
B. subtilis 168 [2]	0.098
S. aureus DSM 20231	-0.188
S. aureus Newman	-0.438
S. pneumoniae D39V [1]	-0.0241

fitness, B. subtilis 168 [3], one replicate
Conditions	partner 0.1 µg/mL	partner 0.125 µg/mL	partner 0.2 µg/mL	partner 0.25 µg/mL	partner 0.4 µg/mL	partner 1 µg/mL	partner 2 µg/mL
first compound 0.04875 µg/mL	–	0.392	–	0.382	–	0.37	0.375
first compound 0.0975 µg/mL	–	0.443	–	0.46	–	0.315	0.247
first compound 0.195 µg/mL	0.325	–	0.259	–	0.115	0.279	0.147
first compound 0.39 µg/mL	0.162	0.227	0.262	–	0.207	–	–
first compound 0.78 µg/mL	0.237	0.155	0.221	–	0.17	–	–

fitness, B. subtilis 168 [3]
Conditions	first compound 0.04875 µg/mL	first compound 0.0975 µg/mL	first compound 0.195 µg/mL	first compound 0.39 µg/mL	first compound 0.78 µg/mL	first compound 1.562 µg/mL	first compound 3.125 µg/mL	first compound 6.25 µg/mL
partner 0.125 µg/mL	–	–	0.289	–	–	–	–	–
partner 0.25 µg/mL	–	–	0.315	0.187	0.178	–	–	–
partner 0.5 µg/mL	0.397	0.407	0.29	0.19	0.168	0.286	0.26	0.255

Cc1ncc([N+](=O)[O-])n1CCO [Metronidazole] + CO[C@@H]1[C@@H](OC(N)=O)[C@@H](O)[C@H](Oc2ccc3c(O)c(NC(=O)c4ccc(O)c(CC=C(C)C)c4)c(=O)oc3c2C)OC1(C)C [Novobiocin]
Conditions	Bliss interaction score
B. subtilis 168 [2]	0.072
S. aureus DSM 20231	0.0355
S. aureus Newman	0.05
S. pneumoniae D39V [1]	0.126

fitness, B. subtilis 168 [3]
Conditions	first compound 0.625 µg/mL	first compound 1.25 µg/mL	first compound 2.5 µg/mL
partner 0.0125 µg/mL	0.969	0.954	0.968
partner 0.025 µg/mL	0.998	0.977	0.986
partner 0.05 µg/mL	0.969	0.977	0.98

fitness, B. subtilis 168 [3], one replicate
Conditions	first compound 0.625 µg/mL	first compound 1.25 µg/mL	first compound 2.5 µg/mL
partner 0.125 µg/mL	≥ 1	0.958	0.915
partner 0.25 µg/mL	0.923	0.916	0.908
partner 0.5 µg/mL	0.584	0.633	0.552

O=C(O)c1cn(C2CC2)c2cc(N3CCNCC3)c(F)cc2c1=O [Ciprofloxacin] + CO[C@H]1/C=C/O[C@@]2(C)Oc3c(C)c(O)c4c(O)c(c(/C=N/N5CCN(C)CC5)c(O)c4c3C2=O)NC(=O)/C(C)=C\C=C\[C@H](C)[C@H](O)[C@@H](C)[C@@H](O)[C@@H](C)[C@H](OC(C)=O)[C@@H]1C [Rifampicin]
Conditions	Bliss interaction score
B. subtilis 168 [2]	0.162
S. aureus DSM 20231	-0.0712
S. aureus Newman	0.0614
S. pneumoniae D39V [1]	0.0532

fitness, S. pneumoniae D39V [4]
Conditions	first compound 0.125 µg/mL	first compound 0.25 µg/mL	first compound 0.5 µg/mL
partner 0.025 µg/mL	0.954	0.84	0.795
partner 0.05 µg/mL	–	–	0.688

S. pneumoniae D39V [4], partner 0.2 µg/mL, one replicate
Conditions	fitness
first compound 0.125 µg/mL	0
first compound 0.25 µg/mL	0
first compound 0.5 µg/mL	0

COc1cccc2c1C(=O)c1c(O)c3c(c(O)c1C2=O)C[C@@](O)(C(=O)CO)C[C@@H]3O[C@H]1C[C@H](N)[C@H](O)[C@H](C)O1 [Doxorubicin] + CO[C@H]1/C=C/O[C@@]2(C)Oc3c(C)c(O)c4c(O)c(c(/C=N/N5CCN(C)CC5)c(O)c4c3C2=O)NC(=O)/C(C)=C\C=C\[C@H](C)[C@H](O)[C@@H](C)[C@@H](O)[C@@H](C)[C@H](OC(C)=O)[C@@H]1C [Rifampicin]
Conditions	Bliss interaction score
B. subtilis 168 [2]	0.0845
S. aureus DSM 20231	-0.0908
S. aureus Newman	-0.029
S. pneumoniae D39V [1]	-0.058

fitness, S. pneumoniae D39V [4]
Conditions	first compound 0.25 µg/mL	first compound 0.5 µg/mL	first compound 1 µg/mL
partner 0.025 µg/mL	0.985	0.991	0.866
partner 0.05 µg/mL	–	0.94	–
partner 0.1 µg/mL	0.323	0.397	0.318

S. pneumoniae D39V [4], partner 0.2 µg/mL, one replicate
Conditions	fitness
first compound 0.25 µg/mL	0
first compound 0.5 µg/mL	0
first compound 1 µg/mL	0

C[C@H]1c2cccc(O)c2C(=O)C2=C(O)[C@]3(O)C(=O)C(C(N)=O)=C(O)[C@@H](N(C)C)[C@@H]3[C@@H](O)[C@@H]21 [Doxycycline] + Cn1nnc(-c2ccc(-c3ccc(N4C[C@H](CO)OC4=O)cc3F)cn2)n1 [Tedizolid]
Conditions	Bliss interaction score
B. subtilis 168 [2]	-0.0653
S. aureus DSM 20231	-0.0283
S. aureus Newman	-0.0152
S. pneumoniae D39V [1]	0.055

fitness, S. pneumoniae D39V [4], one replicate
Conditions	first compound 0.003875 µg/mL	first compound 0.00775 µg/mL	first compound 0.031 µg/mL	first compound 0.062 µg/mL
partner 0.125 µg/mL	0.847	0.848	–	–
partner 0.25 µg/mL	0.765	0.759	0.709	0.56
partner 0.5 µg/mL	0.411	0.438	0.301	0.203

fitness, S. pneumoniae D39V [4]
Conditions	partner 0.03125 µg/mL	partner 0.0625 µg/mL	partner 0.125 µg/mL	partner 0.25 µg/mL	partner 0.5 µg/mL
first compound 0.0155 µg/mL	0.91	0.913	0.832	0.801	0.456
first compound 0.031 µg/mL	0.957	0.9	0.768	–	–
first compound 0.062 µg/mL	0.92	0.905	0.826	–	–

C[C@@H]1O[C@@H]1P(=O)(O)O [Fosfomycin] + C[C@@H](O)[C@H]1C(=O)N2C(C(=O)O)=C(SCCNC=N)C[C@H]12 [Imipenem]
Conditions	Bliss interaction score
B. subtilis 168 [2]	0.0674
S. aureus DSM 20231	-0.0911
S. aureus Newman	0.0199
S. pneumoniae D39V [1]	0.0339

fitness, S. pneumoniae D39V [4]
Conditions	partner 0.005 µg/mL	partner 0.0065 µg/mL	partner 0.01 µg/mL	partner 0.013 µg/mL	partner 0.02 µg/mL	partner 0.026 µg/mL
first compound 1.25 µg/mL	0.965	0.922	0.944	0.925	0.92	0.901
first compound 2.5 µg/mL	0.911	0.87	0.887	0.881	0.911	0.814
first compound 5 µg/mL	0.797	0.608	0.786	0.726	0.747	0.74
